Data reported in the Bradley open melting point set (2014).
Values joined by “and” are separate entries in the source; they are usually repeats but may differ in a detail not shown here. Identical values can stand only once.

| Structure (SMILES) | melting point |
| --- | --- |
| O=[N+]([O-])c1ccccc1/C=C(/Cl)c1ccccn1 [2-[(E)-1-chloro-2-(2-nitrophenyl)ethenyl]pyridine] | 61 °C |
| CC(C)CCCC(C)C1CCC2C3CCC4CCCCC4(C)C3CCC12C (stereo not drawn) [cholestane] | 80 °C |
| C#CC(O)(c1ccccc1)c1ccccc1 [1,1-diphenyl-2-propyn-1-ol] | 46 °C |
| O=C(Nc1ccc2cc(OC(=O)c3ccccc3)ccc2c1)c1ccccc1 [6-[(phenylcarbonyl)amino]naphthalen-2-yl benzoate] | 227 °C |
| COC1=CC(=O)C=C(OC)C1=O [2,6-dimethoxy-p-benzoquinone] | 255 °C |
| CC(C)CCC[C@@H](C)[C@H]1CC[C@H]2[C@@H]3CC=C4C[C@@H](O)CC[C@]4(C)[C@H]3CC[C@]12C [cholesterol] | 148 °C (3×) and 149 °C |
| c1ccsc1 [thiophene] | -38 °C (3×) and -38.2 °C and -38.3 °C (2×) |
| C[C@]12CCC(=O)C=C1CC[C@@H]1[C@@H]2C(=O)C[C@@]2(C)[C@H]1CC[C@]2(O)C(=O)CO [Cortisone] | 225 °C |
| O=Cc1cccc([N+](=O)[O-])c1 [m-nitrobenzaldehyde] | 59 °C |
| CCCCc1ccccc1 [Butylbenzene] | -88 °C |
| CCCCCCSc1cc(N(NC(=O)OC(C)(C)C)C(=O)OC(C)(C)C)cc(SCCCCCC)c1SCCCCCC | 74.5 °C |
| CC(C)CC(N)C(=O)O (stereo in doubt) [D-Leucine] | 293 °C |
| CCOC(C)=O [ethyl acetate] | -84 °C |
| N#CCc1ccc([N+](=O)[O-])cc1 [p-nitrophenylacetonitrile] | 116 °C |
| Brc1c(Br)c(Br)c(Br)c(Br)c1Br [hexabromobenzene] | 306 °C |
| CCCCCCCC/C=C\CCCCCCCCCCCC(N)=O [(13Z)-Docos-13-enamide] | 79 °C |
| OCc1ccccn1 [2-pyridinemethanol] | -6 °C |
| CC(C)(C)OOC(C)(C)C [Di-tert-butyl peroxide] | -40 °C |
| c1cnccn1 [Pyrazine] | 55 °C |
| ClCCl [dichloromethane] | -95 °C |
| NNC(=O)c1cc(Cl)cc(Cl)c1 [3,5-dichlorobenzhydrazide] | 206 °C |
| OCCCCCCO [1,6-hexanediol] | 45 °C |
| N#CCCCCC#N [adiponitrile] | 2 °C |
| CC(=O)Oc1ccc(C(=O)O)cc1 [4-acetoxybenzoic acid] | 194 °C |
| O=C(O)C[C@@H](O)C(=O)O [D-malic acid] | 102 °C |

| Structure (SMILES) | melting point |
| --- | --- |
| Cc1cc2nc3c(=O)[nH]c(=O)nc-3n(C[C@H](O)[C@H](O)[C@H](O)CO)c2cc1C [Riboflavin] | 280 °C |
| O=c1c2ccccc2sc2ccccc12 [Thiaxanthone] | 210 °C |
| COC(=O)c1ccc(OC)c(F)c1 [methyl 3-fluoro-4-methoxybenzoate] | 71 °C |
| CC(=O)OC1CCC2(C)C(CCC3C4=C(CCC32)C(C)(C#Cc2ccccc2)CC4)C1 (stereo not drawn) [10,17-dimethyl-17-(phenylethynyl)gon-13-en-3-yl acetate] | 136 °C |
| OCc1ccccc1-c1ccccc1 [o-phenylbenzyl_alcohol] | 50 °C |
| CCCCCCCCC=O [Nonanal] | -18 °C |
| O=C(O)c1c(F)c(F)c(F)c(F)c1C(=O)O [tetrafluorophthalic acid] | 156 °C |
| COc1ccc(C#N)cc1Br [3-bromo-4-methoxybenzonitrile] | 122 °C |
| CS(=O)(=O)n1ccnc1 [1-(methylsulfonyl)imidazole] | 89 °C |
| O=C(Cl)c1cc([N+](=O)[O-])cc([N+](=O)[O-])c1 [3,5-Dinitrobenzoyl chloride] | 69 °C |
| Cl/C=C/CCl [1,3-dichloropropene, cis trans] | -84 °C |
| O=C(CCl)Nc1cccc([N+](=O)[O-])c1 [2-chloro-3'-nitroacetanilide] | 114 °C |
| CCCC=O [butanal] | -97 °C |
| CC(C)C[C@H](NC(=O)OCC1c2ccccc2-c2ccccc21)C(=O)O [N-fmoc-L-leucine] | 154 °C |
| CCCCCCCCCCCBr [1-bromoundecane] | -9 °C |
| CCOCCOCCO [2-(2-Ethoxyethoxy)ethanol] | -76 °C |
| C/C=C\c1ccccc1 [cis-1-phenyl-1-propene] | -62 °C |
| O=C(O)c1ccccc1Nc1cccc(C(F)(F)F)c1 [flufenamic acid] | 125 °C |
| CC(=O)C(C)(C)C [3,3-dimethyl-2-butanone] | -52 °C |
| O=Cc1ccc(N2CCCC2)cc1 [4-(1-pyrrolidinyl)benzaldehyde] | 84 °C |
| O=Cc1cccc(Cl)c1 [m-chlorobenzaldehyde] | 18 °C |
| O=C(O)c1cccc([N+](=O)[O-])c1 [3-nitrobenzoic acid] | 142 °C |
| CC12C=CC(O1)C1C(=O)OC(=O)C12 (stereo not drawn) | 70 °C |
| C[C@H](Cc1ccc(O)c(O)c1)[C@@H](C)Cc1ccc(O)c(O)c1 | 180 °C |
| CCCN(CCC)CCC [tri-n-propylamine] | -93 °C |

| Structure (SMILES) | melting point |
| --- | --- |
| CC(=O)OCC(OC(C)=O)C(OC(C)=O)C(OC(C)=O)C(OC(C)=O)C(=O)O (stereo not drawn) [2,3,4,5,6-penta(acetyloxy)hexanoic acid] | 110 °C |
| Clc1ccc(-c2ccccc2Cl)cc1 [PCB-8] | 44 °C |
| COc1ccc(/C=C2\N=C(c3ccccc3)OC2=O)cc1OC | 133 °C |
| Cl[C@H]1[C@H](Cl)[C@@H](Cl)[C@@H](Cl)[C@H](Cl)[C@H]1Cl [g-bhc(lindane)] | 112 °C |
| O=C1CCC(c2ccccc2)c2ccccc21 (stereo not drawn) [1(2H)-Naphthalenone, 3,4-dihydro-4-phenyl-] | 75 °C |
| Cc1cccc(N)c1 [m-toluidine] | -30 °C |
| c1ccc2c(c1)Nc1ccccc1S2 [phenothiazine] | 184 °C (3×) and 188 °C and 185 °C (2×) |
| NS(=O)(=O)c1c(Cl)cc(Cl)cc1Cl [2,4,6-trichlorobenzenesulfonamide] | 180 °C |
| CC(C)(C)c1cc(CC(=O)O)cc(C(C)(C)C)c1O [3,5-di-tert-butyl-4-hydroxyphenylacetic acid] | 156 °C |
| Nc1ccc(Br)cc1 [4-bromoaniline] | 63 °C |
| CN=C=S [Isothiocyanatomethane] | 35 °C |
| CC(=O)Nc1ccc(O)cc1 [acetaminophen] | 170 °C |
| Cc1ccc(/C=C(\Oc2cccc(C)c2)c2nc3ccccc3s2)cc1 | 138 °C |
| O=C(O)/C=C/c1cccc(Br)c1 [trans-3-bromocinnamic acid] | 180 °C |
| O=C1CCCCC1 [Cyclohexanone] | -32 °C and -31 °C |
| CCCc1ccc(O)cc1 [4-propylphenol] | 22 °C |
| Cc1cc(C)nc(NS(=O)(=O)c2ccc(N)cc2)n1 [sulfamethazine] | 200 °C |
| C=Cc1ccc(B(O)O)cc1 [4-vinylbenzeneboronic acid] | 190 °C |
| O=C(O)/C(=C/c1ccccc1)c1ccccc1 [(2E)-2,3-Diphenylacrylic acid] | 173 °C |
| NCCCNCCCCNCCCN [spermine] | 29 °C |
| O=C(O)C1CCN(C(=O)CCl)CC1 [N-chloroacetylisonipecotic acid] | 110 °C |
| Cc1cc(=O)n(-c2ccccc2)n1C [antipyrine] | 112 °C |
| CC(=O)Nc1nc(O)c2ncn(COCCOC(C)=O)c2n1 [N,O-Diacetylacyclovir] | 204 °C |
| O=C(O)C1CCCCC1 [cyclohexanecarboxylic acid] | 31 °C |
| OC1=NC(=Nc2ccccc2)S/C1=C\c1ccccc1 [OSM-S-55] | 260 °C |

| Structure (SMILES) | melting point |
| --- | --- |
| Clc1ccc(Cl)c(Cl)c1 [1,2,4-Trichlorobenzene] | 17 °C |
| O=C(O)c1cc(C(=O)O)c(C(=O)O)cc1C(=O)O [Pyromellitic Acid] | 276 °C |
| Nc1ccc(-c2ccc(N)cc2)cc1 [Biphenyl-4,4'-diamine] | 128 °C |
| CC(=O)OC1CC2C(CCC3(C)C(C(C)CCCC(C)C)CCC23)C2(C)CCC(=O)C=C12 (stereo not drawn) [3-oxocholest-4-en-6-yl acetate] | 102 °C |
| O=C(O)c1ccccc1 [Benzoic acid] | 122 °C |
| Cc1ccc(S(=O)(=O)OC[C@@H]2OC(C)(C)O[C@H]2COS(=O)(=O)c2ccc(C)cc2)cc1 [1,4-di-o-tosyl-2,3-o-isopropylidene-l-threitol] | 90 °C |
| CCOC(=O)c1ccc(OC)c(OC)c1 [ethyl 3,4-dimethoxybenzoate] | 44 °C |
| c1ccc2c(c1)c1ccccc1c1ccccc21 [triphenylene] | 199 °C and 196 °C and 197 °C |
| O=C(O)/C=C(/CC(=O)O)C(=O)O [cis-aconitic acid] | 118 °C |
| OCCN1CCN(CCCN2c3ccccc3Sc3ccc(Cl)cc32)CC1 [perphenazine] | 96.9 °C |
| Nc1cccc(N)c1 [m-phenylenediamine] | 65 °C |
| C[C@]12CCC(=O)C[C@@H]1CC[C@@H]1[C@@H]2CC[C@]2(C)[C@@H](O)CC[C@@H]12 [stanolone] | 181 °C |
| C1=CCCC1 [Cyclopentene] | -135 °C |
| Cc1ccccc1-n1c(C)nc2ccccc2c1=O [Methaqualone] | 113 °C |
| NC(=S)C1COc2ccccc2O1 (stereo not drawn) [1,4-benzodioxane-2-thiocarboxamide] | 174 °C |
| COc1cccc(OC)c1C(C)=O [2',6'-dimethoxyacetophenone] | 70 °C |
| Nc1c(Br)cc(Br)cc1C(=O)O [2-amino-3,5-dibromobenzoic acid] | 233 °C |
| C=Cc1cccc(B(O)O)c1 [3-vinylbenzeneboronic acid] | 128 °C |
| Cc1ccc(N2C(=O)C=CC2=O)cc1Cl [N-(3-chloro-4-methylphenyl)maleimide] | 146 °C |
| CN(C)C(=N)NC(=N)N [Metformin] | 224 °C |
| FC(F)(F)C(F)(F)C(F)(F)C(F)(F)C(F)(F)C(F)(F)C(F)(F)C(F)(F)Br [1-bromoperfluorooctane] | 6 °C |
| ClC1(Cl)[C@]2(Cl)C(/Cl)=C(/Cl)[C@@]1(Cl)[C@@H]3[C@@H](Cl)[C@@H](Cl)C[C@H]23 [a-Chlordane, cis-Chlordane] | 106 °C |
| Cc1ccc(C(=O)O)cc1 [4-Methylbenzoic acid] | 181 °C |
